Paper PMC9266530 (International Journal of Molecular Sciences, 2022)
“And” between values parts separate entries of the source, which are not always exact repeats. Equal entries are not always repeated. Where two headings read alike, the source gives them in different places.

Columns and labels:
CYP3A4 [1] = biological target: T1, CYP3A4 (Homo sapiens, UniProt P08684); conditions: BFC debenzylation activity, same method as in this study; previously reported analogues; cited from earlier work
T1 construct: The full-length protein was used for assays and the truncated form was used for crystallization; made in house
Target sequence in this assay (P08684 2-503): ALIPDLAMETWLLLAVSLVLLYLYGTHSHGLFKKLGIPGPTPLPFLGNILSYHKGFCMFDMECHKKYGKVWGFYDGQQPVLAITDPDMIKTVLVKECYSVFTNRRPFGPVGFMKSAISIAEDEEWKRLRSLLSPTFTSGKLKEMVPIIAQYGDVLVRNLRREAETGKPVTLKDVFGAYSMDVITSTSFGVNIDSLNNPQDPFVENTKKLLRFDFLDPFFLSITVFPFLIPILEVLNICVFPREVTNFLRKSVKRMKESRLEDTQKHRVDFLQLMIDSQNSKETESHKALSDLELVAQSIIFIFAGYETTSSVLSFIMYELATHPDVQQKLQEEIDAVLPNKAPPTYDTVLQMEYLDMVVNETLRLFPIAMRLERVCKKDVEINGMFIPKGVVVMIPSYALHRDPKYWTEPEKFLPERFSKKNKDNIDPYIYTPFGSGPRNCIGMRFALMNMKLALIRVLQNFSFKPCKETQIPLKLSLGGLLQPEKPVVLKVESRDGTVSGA

CYP3A4 [2] = biological target: T1, CYP3A4; conditions: previously reported analogues; cited from earlier work
Target sequence in this assay (P08684 whole entry, the tested form may be a part): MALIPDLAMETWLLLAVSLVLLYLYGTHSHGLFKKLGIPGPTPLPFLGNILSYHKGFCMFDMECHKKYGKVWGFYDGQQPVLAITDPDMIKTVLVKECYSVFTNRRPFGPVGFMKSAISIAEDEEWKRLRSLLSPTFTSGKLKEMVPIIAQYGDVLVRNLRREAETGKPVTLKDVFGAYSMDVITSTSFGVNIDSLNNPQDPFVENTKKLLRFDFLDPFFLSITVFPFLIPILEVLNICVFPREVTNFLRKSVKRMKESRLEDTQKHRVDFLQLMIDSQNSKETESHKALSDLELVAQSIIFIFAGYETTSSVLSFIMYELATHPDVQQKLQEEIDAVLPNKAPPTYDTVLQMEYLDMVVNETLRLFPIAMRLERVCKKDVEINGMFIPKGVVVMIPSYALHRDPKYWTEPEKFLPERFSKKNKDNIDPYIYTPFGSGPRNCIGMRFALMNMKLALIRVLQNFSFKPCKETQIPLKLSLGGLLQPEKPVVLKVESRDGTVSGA

CYP3A4 [3] = biological target: T1, CYP3A4; experiment: H2O2-dependent heme depletion (heme bleaching) assay; conditions: for Heme Destroyed: 10 mM H2O2, 2 h, relative to ligand-free CYP3A4 = 100%; for kH2O2: rate constant for the H2O2-dependent heme-bleaching reaction, 10 mM H2O2, 16 μM inhibitor
Experimental: H2O2-dependent heme depletion assay—Heme bleaching in ligand-free and inhibitor-bound CYP3A4 (1.6 μM) was monitored at 23 °C in 0.1 M phosphate buffer, pH 7.4. After 10 min of preincubation of CYP3A4 with 16 μM inhibitors, heme decay was initiated by the addition of 10 mM H2O2 (final concentration) and monitored at 420 nm for 2 h. The percentage of heme destroyed was calculated relative to that in ligand-free CYP3A4, considered as 100% decay.
Target sequence in this assay (P08684 whole entry, the tested form may be a part): as above

CYP3A4 [4] = biological target: T1, CYP3A4; experiment: Stopped-flow kinetics of ligand binding; conditions: for Percentage of the absorbance change taking place during the fast kinetic phase: ligand-binding reaction; for kfast: rate constant for the fast kinetic phase of the ligand-binding reaction
Experimental: Kinetics of Ligand Binding—The kinetics of ligand binding to CYP3A4 were measured at 427 nm in an SX.18MV stopped-flow apparatus (Applied Photophysics, UK), as previously described.
Target sequence in this assay (P08684 whole entry, the tested form may be a part): as above

CYP3A4 [5] = biological target: T1, CYP3A4; experiment: Thermal denaturation (ligand-dependent change in melting temperature); type: binding; conditions: purified CYP3A4 protein solution, pH 7.4, ligand-dependent change in melting temperature of CYP3A4, 1 μM protein, 20 μM ligand
Experimental: Thermal Denaturation—Melting curves were recorded in 0.1 M phosphate buffer, pH 7.4, using a Cary 300 spectrophotometer. Protein (1 μM) was mixed with a ligand (20 μM) and incubated for 15 min at 23 °C. Protein denaturation was monitored at 260 nm using a 0.2 °C measurement step, 0.9 °C/min ramp rate, and 50–75 °C temperature range. The denaturation midpoint (melting temperature; Tm) was determined from non-linear fittings to the melting curve, as described earlier.
Target sequence in this assay (P08684 whole entry, the tested form may be a part): as above

CYP3A4 [6] = biological target: T1, CYP3A4; experiment: Spectral binding titrations (equilibrium ligand binding, type II spectral change); conditions: for Kd: 23 °C, 0.1 M phosphate pH 7.4, quadratic fits to titration plots, read-out: Ks (spectral dissociation constant); for λmax Ferric: ferric ligand-bound CYP3A4; for ΔAmax: maximal absorbance change (peak-to-trough in difference spectrum) relative to that induced by ritonavir; for A421/417: ratio between absorption maxima of ferric ligand-bound and ligand-free CYP3A4; for λmax Ferrous: ferrous ligand-bound CYP3A4
Experimental: Spectral Binding Titrations—Equilibrium ligand binding to CYP3A4 was monitored using a Cary 300 spectrophotometer at 23 °C in 0.1 M phosphate buffer, pH 7.4, supplemented with 20% glycerol and 1 mM dithiothreitol. Inhibitors were dissolved in dimethyl sulfoxide (DMSO) and added to a 2 μM protein solution in small aliquots, with the final solvent concentration of <2%. The spectral dissociation constant (Ks) was determined from quadratic fits to the titration plots.
Target sequence in this assay (P08684 whole entry, the tested form may be a part): as above

CYP3A4 [7] = biological target: T1, CYP3A4; experiment: Inhibitory potency for the BFC O-debenzylase activity in a soluble reconstituted system; type: biochemical; conditions: for IC50: BFC debenzylase activity, soluble reconstituted system with cytochrome P450 reductase
Experimental: Inhibitory Potency Assays—The inhibitory potency for the BFC O-debenzylase activity of CYP3A4 was evaluated fluorometrically in a soluble reconstituted system, and the IC50 values were derived from the [% activity] vs. [inhibitor] plots, as described in detail elsewhere.
Target sequence in this assay (P08684 2-503): as the sequence (P08684 2-503) above

CYP3A4 [8] = biological target: T1, CYP3A4; conditions: previously reported analogues; read-out: Ks; cited from earlier work
Target sequence in this assay (P08684 whole entry, the tested form may be a part): as the sequence (P08684 whole entry, the tested form may be a part) above

recombinant CYP3A5 = recombinant CYP3A5 (Homo sapiens, UniProt P20815); experiment: Inhibitory potency against recombinant CYP3A5; type: biochemical; conditions: read-out: IC50 estimates
Sequence of recombinant CYP3A5 (P20815 whole entry): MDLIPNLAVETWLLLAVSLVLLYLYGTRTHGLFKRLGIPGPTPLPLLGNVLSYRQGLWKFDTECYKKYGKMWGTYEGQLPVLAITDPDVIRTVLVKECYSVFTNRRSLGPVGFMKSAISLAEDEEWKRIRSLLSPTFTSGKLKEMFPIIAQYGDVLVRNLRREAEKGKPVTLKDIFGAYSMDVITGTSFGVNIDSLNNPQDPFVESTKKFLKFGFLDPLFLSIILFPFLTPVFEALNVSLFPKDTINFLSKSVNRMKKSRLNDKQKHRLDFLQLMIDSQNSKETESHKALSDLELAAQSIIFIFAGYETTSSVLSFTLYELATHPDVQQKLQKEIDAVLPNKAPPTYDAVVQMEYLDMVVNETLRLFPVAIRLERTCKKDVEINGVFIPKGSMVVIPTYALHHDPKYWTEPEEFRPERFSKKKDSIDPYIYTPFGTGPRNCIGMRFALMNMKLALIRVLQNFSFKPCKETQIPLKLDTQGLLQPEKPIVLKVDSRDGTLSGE
Text: Thus, one optimization strategy would be the R3 enlargement and branching. […] Our analogues lack the backbone hydroxyl as well, but contain much smaller/chemically simpler end-groups.

Row | SMILES | Heme Destroyed (CYP3A4 [3]) | kH2O2 (CYP3A4 [3]) | Percentage of the absorbance change taking place during the fast kinetic phase (CYP3A4 [4]) [%] | kfast (CYP3A4 [4]) | ΔTm at 15 min, 20 μM (CYP3A4 [5]) [°C] | Kd (CYP3A4 [6]; 2 μM protein) [nM] | λmax Ferric (CYP3A4 [6]) [nm] | ΔAmax (CYP3A4 [6]) [%] | A421/417 (CYP3A4 [6]) | IC50 (CYP3A4 [7]) [nM] | λmax Ferrous (CYP3A4 [6]) [nm] | also measured
1 | CC(C)(C)OC(=O)N[C@H](CS[C@H](Cc1ccccc1)C(=O)NCCCc1cccnc1)Cc1ccccc1 [Compound 3a, reference compound] | 18% and 18 ± 2% | 0.21 ± 0.03 10^3 × min^−1 | 36 | 12.5 ± 1.3 s⁻¹ | – | – | – | – | – | – | – | IC50 (CYP3A4 [1]): 160 nM; ΔTm (CYP3A4 [2]): 8.1 °C
2 | CC(C)(C)OC(=O)N[C@H](CS[C@H](Cc1ccccc1)C(=O)NCC(=O)Nc1cccnc1)Cc1ccccc1 [Compound 4] | 44 ± 5% | 0.70 ± 0.08 10^3 × min^−1 | 27 | 13.8 s⁻¹ and 13.8 ± 1.5 s⁻¹ | 1.9 | 1360 ± 120 | 421 | 98 | 0.99 | 1600 ± 200 | – | fold increase in Ks relative to 3a (CYP3A4 [6]; relative to 3a): 100 fold; fold increase in IC50 relative to 3a (CYP3A4 [7]; BFC O-debenzylase activity, relative to 3a): 10 fold
3 | CC(C)(C)OC(=O)N[C@H](CS[C@H](Cc1ccccc1)C(=O)NCc1cccnc1)Cc1ccccc1 [Compound 4b, reference compound] | 39 ± 5% | 0.64 ± 0.07 10^3 × min^−1 | 31 | 13.2 ± 1.8 s⁻¹ | – | – | – | – | – | – | – | IC50 (CYP3A4 [1]): 1190 nM; Kd (CYP3A4 [8]): 63 nM
4 | CC(C)(C)OC(=O)N[C@H](CS[C@H](Cc1ccccc1)C(=O)NCCc1cccnc1)Cc1ccccc1 [Compound 4f, reference compound] | 37% and 37 ± 4% | 0.60 ± 0.08 10^3 × min^−1 | 32 | 11.4 ± 1.4 s⁻¹ | – | – | – | – | – | – | – | ΔTm (CYP3A4 [2]): 4.2 °C
5 | CC(C)(C)OC(=O)N[C@H](CS[C@@H](Cc1ccccc1)C(=O)NCCc1cccnc1)Cc1ccccc1 [Compound 4h, reference compound] | 22 ± 3% | 0.32 ± 0.03 10^3 × min^−1 | 28 | 13.8 ± 2.0 s⁻¹ | – | – | – | – | – | – | – | –
6 | CC(C)(C)OC(=O)N[C@H](CS[C@H](Cc1ccccc1)C(=O)NCc1ccncc1)Cc1ccccc1 [Compound 5a] | 22% and 22 ± 3% | 0.31 ± 0.04 10^3 × min^−1 | 34 | 22.5 ± 3.1 s⁻¹ | 5.2 | 34 ± 5 | 422 | 105 | 1.07 | 310 ± 30 | 443 | fold improvement in binding affinity relative to 4f (CYP3A4 [6]; relative to 4f): 2.2 fold; fold improvement in inhibitory potency relative to 4f (CYP3A4 [7]; relative to 4f): 1.3 fold

Second part, led by results:

Row | Heme Destroyed (CYP3A4 [3]) | kH2O2 (CYP3A4 [3]) | Percentage of the absorbance change taking place during the fast kinetic phase (CYP3A4 [4]) [%] | kfast (CYP3A4 [4]) | ΔTm at 15 min, 20 μM (CYP3A4 [5]) [°C] | Kd (CYP3A4 [6]; 2 μM protein) [nM] | λmax Ferric (CYP3A4 [6]) [nm] | ΔAmax (CYP3A4 [6]) [%] | A421/417 (CYP3A4 [6]) | IC50 (CYP3A4 [7]) [nM] | λmax Ferrous (CYP3A4 [6]) [nm] | SMILES | also measured
7 | 22% and 22 ± 2% | 0.31 ± 0.03 10^3 × min^−1 | 31 | 18.2 ± 1.8 s⁻¹ | 5 | 14 ± 2 | 423 | 126 | 1.06 | 160 ± 20 | 443 | CC(C)(C)OC(=O)N[C@H](CS[C@H](Cc1ccccc1)C(=O)NCCc1ccncc1)Cc1ccccc1 [Compound 5b] | IC50 (recombinant CYP3A5): 180 to 200 nM
8 | 39 ± 4% | 0.66 ± 0.10 10^3 × min^−1 | 26 | 10.3 s⁻¹ and 10.3 ± 1.2 s⁻¹ | 3.6 | 120 ± 10 | 421 | 96 | 1.03 | 600 ± 40 | 443 | O=C(Cc1cccnc1)N[C@H](CS[C@H](Cc1ccccc1)C(=O)NCc1cccnc1)Cc1ccccc1 [Compound 8a] | –
9 | 32 ± 3% | 0.44 ± 0.06 10^3 × min^−1 | 24 | 5.6 s⁻¹ and 5.6 ± 0.6 s⁻¹ | 4.2 | 53 ± 9 | 421 | 109 | 1.03 | 820 ± 90 | 443 | O=C(CCc1cccnc1)N[C@H](CS[C@H](Cc1ccccc1)C(=O)NCCc1cccnc1)Cc1ccccc1 [Compound 8b] | increase in Ks relative to 4f (CYP3A4 [6]; relative to 4f): ~ 20%; increase in IC50 relative to 4f (CYP3A4 [7]; relative to 4f): ~ 20%
10 | 24 ± 2% | 0.32 ± 0.03 10^3 × min^−1 | – | – | – | – | – | – | – | 210 ± 30 | – | O=C(CCc1cccnc1)N[C@H](CS[C@@H](Cc1ccccc1)C(=O)NCCc1cccnc1)Cc1ccccc1 [Compound 8c] | IC50 (recombinant CYP3A5): 180 to 200 nM
11 | 13 ± 2% | 0.17 ± 0.02 10^3 × min^−1 | 30 | 15.4 ± 1.8 s⁻¹ | 7.2 | 8 ± 1 | 422 | 111 | 1.11 | 150 ± 20 | 444 | O=C(N[C@H](CS[C@H](Cc1ccccc1)C(=O)NCCCc1cccnc1)Cc1ccccc1)c1cccnc1 [Compound 10a] | improvement in heme protection relative to 3a (CYP3A4 [3]; relative to the Boc-containing 3a): 5%; IC50 (recombinant CYP3A5): 180 to 200 nM
12 | 19 ± 3% | 0.24 ± 0.03 10^3 × min^−1 | 29 | 13.7 ± 1.5 s⁻¹ | 7.3 | 9 ± 1 | 422 | 110 | 1.10 | – | 443 | O=C(CNC(=O)c1cccnc1)N[C@H](CS[C@H](Cc1ccccc1)C(=O)NCCCc1cccnc1)Cc1ccccc1 [Compound 10b] | Kd (CYP3A4 [6]; human, purified CYP3A4 protein solution, pH 7.4, 2 μM protein): 8 to 9 nM; IC50 (CYP3A4 [7]; human, probe BFC (O-debenzylation)): 210 ± 20 nM
